The values that follow come from ChEMBL document CHEMBL1130104 (J Med Chem, 1997).

Series [1] deals with HeLa. The series is described as follows: Compound was tested for Anti-HIV activity by plaque reduction assay with A018-post virus in HT4-6C human CD4+ […]. It is filed as functional, cell-based. On the technique in general: Plaques are areas of infected cells; plaque reduction assays count them against a control.
Series [2] relates to HeLa. The series is described as follows: compound was tested for 50% toxic concentration by visual grading scale of cells after 3 days of drug treatment in HT4-6C cells. The conditions noted are these: Homo sapiens, 72 h, read-out: TC50 (the source's name). It is filed as functional.
Series [3] is described as follows: selectivity index expressed as TC50/EC50; EC50 values are calculated from HT4-6C cells infected with HIV-1LAI virus.
Series [4] can be described thus: selectivity index expressed as TC50/EC50; EC50 values are calculated from […] cells infected with HIV-1LAI. In kind it is functional.
The subject of series [5] is HeLa. In words: Compound was tested for Anti-HIV activity by plaque reduction assay with E89K virus in HT4-6C human CD4+ […]. In kind it is functional, cell-based.
A short description of series [6]: compound was tested for 50% toxic concentration by flow cytometry after propidium iodide staining after 3 days of drug treatment in CEM lymphoblast cells. The settings on record: human, read-out: TC50.
Series [7] has as its system HeLa. The series is described as follows: Compound was tested for Anti-HIV activity by plaque reduction assay with wild type HIV-1LAI virus in HT4-6C human CD4+ […]. In kind it is functional, cell-based.
Series [8] in a line: selectivity index = TC50/EC50. The EC50 values are calculated from CEM lymphoblast cells infected with HIV-1LAI virus. In kind it is functional, CCRF-CEM.

A value given as a limit tells only on which side of the number the result lay.

Consider `O=C(O)P(=O)(O)O` [FOSCARNET], for which the EC50 (usually the concentration that produces a half-maximal response) is 65 µM in series [1], more than 1000 µM in series [5] and 133 µM in series [7]. Further, the CC50 in series [2] turned out to be 1000 µM. In addition, the values for the Selectivity index in series [3] and in series [4] were 6 and more than 7.5, respectively. The CC50 at 72 h in series [6] was 800 µM.
For the molecule `Cc1cn([C@H]2C[C@H](N=[N+]=[N-])[C@@H](CO)O2)c(=O)[nH]c1=O` [ZIDOVUDINE], the half-maximal effective concentration (EC50) in series [1] was 2.9 µM; in series [5] it was 0.009 µM; in series [7] it was 0.013 µM.
Turning to `CCCCCCCCCCCCCCCCCCCCCCOC(=O)P(=O)(O)OC[C@H]1O[C@@H](n2cc(C)c(=O)[nH]c2=O)C[C@@H]1N=[N+]=[N-].N`, the figures for the EC50 in series [1], in series [5] and in series [7] were 0.77 µM, 0.17 µM and 0.32 µM, respectively. For the same molecule, the CC50 in series [2] was 320 µM. Also, the results for the Selectivity index in series [4] and in series [8] were 1000 and 291, respectively. For the same molecule, the CC50 at 72 h in series [6] was 93 µM.
Regarding `CCCCCCCCCCCCCCCCCCCCOC(=O)P(=O)(O)OC[C@H]1O[C@@H](n2cc(C)c(=O)[nH]c2=O)C[C@@H]1N=[N+]=[N-].N`, the EC50 was found to be 0.53 µM in series [1], 0.009 µM in series [5] and 0.14 µM in series [7]. For the same molecule, in series [2], the CC50 was 32 µM. In addition, the Selectivity index in series [4] is recorded as 228; in series [8], 257. Besides, the CC50 at 72 h in series [6] turned out to be 36 µM.
As for `CCCCCCCCCCCCCCCCCCOC(=O)P(=O)(O)OC[C@H]1O[C@@H](n2cc(C)c(=O)[nH]c2=O)C[C@@H]1N=[N+]=[N-].N`, the values for the EC50 in series [1], in series [5] and in series [7] were 0.3 µM, 0.13 µM and 0.1 µM, respectively. The CC50 in series [2] came to 10 µM. The results for the Selectivity index in series [3] and in series [4] were 280 and 100, respectively. In series [6], the CC50 at 72 h came out at 28 µM.
